In patent US7737142B2, “(Thio) carbamoyl-cyclohexane derivatives as D3/D2 receptor antagonists” (Richter Gedeon Vegyeszeti Gyar Rt., priority 2003, dated 2010):

Assays:
[1] = molecular target: T1, rat recombinant D3 receptors (expressed in Sf9 cells) (Rattus norvegicus, UniProt P19020); test: D3 receptor binding ([3H]-spiperone); conditions: [3H]-spiperone 0.85 nM, read-out: D3 IC-50
T1 construct: purchased Packard BioScience, BioSignal Packard Inc. 6110139; host or cells: Sf9 cells

[2] = molecular target: Alpha-1 receptor (rat brain cortical membrane preparation); test: Alpha-1 receptor binding ([3H]-prasosin); conditions: rat brain cortical membranes, [3H]-prasosin 0.5 nM; read-out: Alfa-1 IC-50
Experimental: The non-specific binding was determined in the presence of 10 μM phentolamine.

[3] = molecular target: T2, D2 receptor (rat brain striatal membrane preparation) (Rattus norvegicus, UniProt P61169); test: D2 receptor binding ([3H]-spiperone); conditions: rat brain striatal membranes, [3H]-spiperone 0.6 nM; read-out: D2 IC-50
T2 construct: on rat brain striatal membrane preparation; from tissue; host or cells: rat brain striatum membranes
T2 sequence (P61169 whole entry): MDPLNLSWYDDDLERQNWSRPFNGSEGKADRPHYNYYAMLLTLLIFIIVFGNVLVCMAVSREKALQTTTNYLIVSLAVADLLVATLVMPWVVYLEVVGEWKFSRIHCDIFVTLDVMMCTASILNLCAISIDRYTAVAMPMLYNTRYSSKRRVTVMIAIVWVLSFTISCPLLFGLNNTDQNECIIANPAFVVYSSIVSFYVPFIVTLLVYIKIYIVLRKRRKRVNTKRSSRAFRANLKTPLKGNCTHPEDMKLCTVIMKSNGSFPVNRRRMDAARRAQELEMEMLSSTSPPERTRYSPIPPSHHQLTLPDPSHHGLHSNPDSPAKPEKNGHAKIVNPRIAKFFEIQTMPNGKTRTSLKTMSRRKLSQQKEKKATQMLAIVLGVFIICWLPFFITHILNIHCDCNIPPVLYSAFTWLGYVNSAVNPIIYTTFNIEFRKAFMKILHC
Experimental: The non-specific binding was determined in the presence of 1 μM (+)-butaclamol.

T1 sequence (P19020 whole entry): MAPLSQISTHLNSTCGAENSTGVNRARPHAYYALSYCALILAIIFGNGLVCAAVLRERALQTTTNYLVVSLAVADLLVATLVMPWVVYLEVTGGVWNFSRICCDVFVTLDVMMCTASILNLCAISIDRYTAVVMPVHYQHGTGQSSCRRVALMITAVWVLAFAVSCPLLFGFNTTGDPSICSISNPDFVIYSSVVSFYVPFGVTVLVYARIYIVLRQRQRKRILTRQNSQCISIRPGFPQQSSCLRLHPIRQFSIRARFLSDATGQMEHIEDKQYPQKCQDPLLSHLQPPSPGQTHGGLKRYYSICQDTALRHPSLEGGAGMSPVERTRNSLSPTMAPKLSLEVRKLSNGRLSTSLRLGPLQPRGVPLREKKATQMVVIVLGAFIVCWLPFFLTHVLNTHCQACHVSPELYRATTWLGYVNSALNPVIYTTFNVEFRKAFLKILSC

SMILES	IC50 [1]	IC50 [2]	melting point	IC50 [3]
COC(=O)C(NC(=O)N[C@H]1CC[C@H](CCN2CCN(c3cccc(Cl)c3Cl)CC2)CC1)C(C)C (relative stereo) [Compound 29, trans-2-[3-(4-{2-[4-(2,3-Dichloro-phenyl)-piperazin-1-yl]-ethyl}-cyclohexyl)-ureido]-3-methyl-butyric acid methyl ester]	1 to 10 nM	> 200 nM	–	–
CCNC(=O)N[C@H]1CC[C@H](CCN2CCN(c3cccc(Cl)c3Cl)CC2)CC1 [Compound 2, Trans-1-{4-[2-[4-(2,3-dichlorophenyl)-piperazin-1-yl]-ethyl]-cyclohexyl}-3-ethyl-urea]	< 1 nM	> 200 nM	235 to 238 °C	–
CCCNC(=O)N[C@H]1CC[C@H](CCN2CCN(c3cccc(Cl)c3Cl)CC2)CC1 [Compound 4, trans-1-{4-[2-[4-(2,3-dichlorophenyl)-piperazin-1-yl]-ethyl]-cyclohexyl}-3-propyl-urea]	< 1 nM	> 200 nM	218 to 220 °C	10 to 50 nM
CC(C)NC(=O)N[C@H]1CC[C@H](CCN2CCN(c3cccc(Cl)c3Cl)CC2)CC1 [Compound 5, trans-1-{4-[2-[4-(2,3-dichlorophenyl)-piperazin-1-yl]-ethyl]-cyclohexyl}-3-isopropyl-urea]	< 1 nM	> 200 nM	227 to 230 °C	10 to 50 nM
CCNC(=O)N[C@H]1CC[C@H](CCN2CCCN(c3cccc(Cl)c3Cl)CC2)CC1 [Compound 6, trans-1-{4-[2-[4-(2,3-dichlorophenyl)-hexahydro[1,4]diazepin-1-yl]-ethyl]-cyclohexyl}-3-ethyl-urea]	< 1 nM	> 200 nM	115 to 118 °C	10 to 50 nM
CN(C)C(=O)N[C@H]1CC[C@H](CCN2CCCN(c3cccc(Cl)c3Cl)CC2)CC1 [Compound 7, trans-1-{4-[2-[4-(2,3-dichlorophenyl)-hexahydro[1,4]diazepin-1-yl]-ethyl]-cyclohexyl}-3,3-dimethyl-urea]	1 to 10 nM	> 200 nM	168 to 172 °C	10 to 50 nM
O=C(N[C@H]1CC[C@H](CCN2CCN(c3cccc(Cl)c3Cl)CC2)CC1)N1CCCC1 [Compound 8, trans-N-{4-[2-[4-(2,3-dichlorophenyl)-piperazin-1-yl]-ethyl]-cyclohexyl}-pyrrolidine-1-carboxamide]	< 1 nM	> 200 nM	201 to 203 °C	10 to 50 nM
O=C(N[C@H]1CC[C@H](CCN2CCCN(c3cccc(Cl)c3Cl)CC2)CC1)N1CCCC1 [Compound 9, trans-N-{4-[2-[4-(2,3-dichlorophenyl)-hexahydro[1,4]diazepin-1-yl]-ethyl]-cyclohexyl}-pyrrolidine-1-carboxamide]	< 1 nM	> 200 nM	–	1 to 10 nM
CCN(CC)C(=O)N[C@H]1CC[C@H](CCN2CCN(c3cccc(Cl)c3Cl)CC2)CC1 [Compound 10, trans-1-{4-[2-[4-(2,3-dichlorophenyl)-piperazin-1-yl]-ethyl]-cyclohexyl}-3,3-diethyl-urea]	–	–	171 to 173 °C	–
CCN(C)C(=O)N[C@H]1CC[C@H](CCN2CCN(c3cccc(Cl)c3Cl)CC2)CC1 [Compound 11, trans-1-{4-[2-[4-(2,3-dichlorophenyl)-piperazin-1-yl]-ethyl]-cyclohexyl}-3-ethyl-3-methyl-urea]	–	–	195 to 198 °C	–
O=C(N[C@H]1CC[C@H](CCN2CCN(c3cccc(Cl)c3Cl)CC2)CC1)N1CCNCC1 [Compound 14, trans-N-{4-[2-[4-(2,3-dichlorophenyl)-piperazin-1-yl]-ethyl]-cyclohexyl}-piperazine-1-carboxamide]	–	–	293 to 296 °C	–
CN1CCN(C(=O)N[C@H]2CC[C@H](CCN3CCN(c4cccc(Cl)c4Cl)CC3)CC2)CC1 [Compound 15, trans-N-{4-[2-[4-(2,3-dichlorophenyl)-piperazin-1-yl]-ethyl]-cyclohexyl}-4-methyl-piperazine-1-carboxamide]	–	–	166 to 168 °C	–
O=C(N[C@H]1CC[C@H](CCN2CCN(c3cccc(Cl)c3Cl)CC2)CC1)N1CCOCC1 [Compound 16, trans-N-{4-[2-[4-(2,3-dichlorophenyl)-piperazin-1-yl]-ethyl]-cyclohexyl}-morpholine-4-carboxamide]	< 1 nM	> 200 nM	201 to 203 °C	–
O=C(N[C@H]1CC[C@H](CCN2CCN(c3cccc(Cl)c3Cl)CC2)CC1)N1CCCCC1 [Compound 17, trans-N-{4-[2-[4-(2,3-dichlorophenyl)-piperazin-1-yl]-ethyl]-cyclohexyl}-piperidine-1-carboxamide]	–	–	188 to 190 °C	–
O=C(N[C@H]1CC[C@H](CCN2CCN(c3cccc(Cl)c3Cl)CC2)CC1)N1CCC(O)CC1 [Compound 18, trans-N-{4-[2-[4-(2,3-dichlorophenyl)-piperazin-1-yl]-ethyl]-cyclohexyl}-4-hydroxy-piperidine-1-carboxamide]	–	–	178 to 180 °C	–
C=CCNC(=O)N[C@H]1CC[C@H](CCN2CCN(c3cccc(Cl)c3Cl)CC2)CC1 [Compound 21, trans-1-Allyl-3-(4-{2-[4-(2,3-dichloro-phenyl)-piperazin-1-yl]-ethyl}-cyclohexyl)-urea]	< 1 nM	> 200 nM	–	10 to 50 nM
CCCCNC(=O)N[C@H]1CC[C@H](CCN2CCN(c3cccc(Cl)c3Cl)CC2)CC1 [Compound 24, trans-1-Butyl-3-(4-{2-[4-(2,3-dichloro-phenyl)-piperazin-1-yl]-ethyl}-cyclohexyl)-urea]	< 1 nM	> 200 nM	–	10 to 50 nM
N#Cc1cccc(NC(=O)N[C@H]2CC[C@H](CCN3CCN(c4cccc(Cl)c4Cl)CC3)CC2)c1 [Compound 31, trans-1-(3-Cyano-phenyl)-3-(4-{2-[4-(2,3-dichloro-phenyl)-piperazin-1-yl]-ethyl}-cyclohexyl)-urea]	< 1 nM	> 200 nM	–	–
COc1cc(NC(=O)N[C@H]2CC[C@H](CCN3CCN(c4cccc(Cl)c4Cl)CC3)CC2)cc(OC)c1OC [Compound 32, trans-1-(4-{2-[4-(2,3-Dichloro-phenyl)-piperazin-1-yl]-ethyl}cyclohexyl)-3-(3,4,5-trimethoxy-phenyl)-urea]	< 1 nM	> 200 nM	–	10 to 50 nM
O=C(NC1CCCCC1)N[C@H]1CC[C@H](CCN2CCN(c3cccc(Cl)c3Cl)CC2)CC1 [Compound 33, trans-1-Cyclohexyl-3-(4-{2-[4-(2,3-dichloro-phenyl)-piperazin-1-yl]-ethyl}-cyclohexyl)-urea]	< 1 nM	> 200 nM	–	–
CC(C)(C)NC(=S)N[C@H]1CC[C@H](CCN2CCN(c3cccc(Cl)c3Cl)CC2)CC1 [Compound 38, trans-1-tert-Butyl-3-(4-{2-[4-(2,3-dichloro-phenyl)-piperazin-1-yl]-ethyl}-cyclohexyl)-thiourea]	1 to 10 nM	> 200 nM	–	10 to 50 nM
CCCNC(=S)N[C@H]1CC[C@H](CCN2CCN(c3cccc(Cl)c3Cl)CC2)CC1 [Compound 42, trans-1-(4-{2-[4-(2,3-Dichloro-phenyl)-piperazin-1-yl]-ethyl}-cyclohexyl)-3-propyl-thiourea]	< 1 nM	> 200 nM	–	10 to 50 nM
CCOC(=O)CNC(=S)N[C@H]1CC[C@H](CCN2CCN(c3cccc(Cl)c3Cl)CC2)CC1 [Compound 44, trans-[3-(4-{2-[4-(2,3-Dichloro-phenyl)-piperazin-1-yl]-ethyl}-cyclohexyl)-thioureido]-acetic acid ethyl ester]	< 1 nM	> 200 nM	–	10 to 50 nM
CCNC(=S)N[C@H]1CC[C@H](CCN2CCN(c3cccc(Cl)c3Cl)CC2)CC1 [Compound 45, trans-1-(4-{2-[4-(2,3-Dichloro-phenyl)-piperazin-1-yl]-ethyl}-cyclohexyl)-3-ethyl-thiourea]	< 1 nM	> 200 nM	–	10 to 50 nM
CC(C)(C)NC(=O)N[C@H]1CC[C@H](CCN2CCN(c3cccc(Cl)c3Cl)CC2)CC1 [Compound 47, trans-1-tert-Butyl-3-(4-{2-[4-(2,3-dichloro-phenyl)-piperazin-1-yl]-ethyl}-cyclohexyl)-urea]	< 1 nM	> 200 nM	–	–
O=C(Nc1ccccc1)N[C@H]1CC[C@H](CCN2CCN(c3cccc(Cl)c3Cl)CC2)CC1 [Compound 48, trans-1-(4-{2-[4-(2,3-Dichloro-phenyl)-piperazin-1-yl]-ethyl}-cyclohexyl)-3-phenyl-urea]	< 1 nM	> 200 nM	–	10 to 50 nM
O=C(NCc1ccccc1)N[C@H]1CC[C@H](CCN2CCN(c3cccc(Cl)c3Cl)CC2)CC1 [Compound 49, trans-1-Benzyl-3-(4-{2-[4-(2,3-dichloro-phenyl)-piperazin-1-yl]-ethyl}-cyclohexyl)-urea]	< 1 nM	> 200 nM	–	50 to 200 nM
COc1ccc(NC(=O)N[C@H]2CC[C@H](CCN3CCN(c4cccc(Cl)c4Cl)CC3)CC2)cc1 [Compound 50, trans-1-(4-{2-[4-(2,3-Dichloro-phenyl)-piperazin-1-yl]-ethyl}-cyclohexyl)-3-(4-methoxy-phenyl)-urea]	< 1 nM	> 200 nM	–	50 to 200 nM
CCOC(=O)CNC(=O)N[C@H]1CC[C@H](CCN2CCN(c3cccc(Cl)c3Cl)CC2)CC1 [Compound 51, trans-[3-(4-{2-[4-(2,3-Dichloro-phenyl)-piperazin-1-yl]-ethyl}-cyclohexyl)-ureido]-acetic acid ethyl ester]	< 1 nM	> 200 nM	–	10 to 50 nM
